Patent US9062066B2, “Anti-inflammatory compound having inhibitory activity against multiple tyrosine kinases and pharmaceutical composition containing same” (KOREA INSTITUTE OF SCIENCE AND TECHNOLOGY, priority 2010, dated 2015)

Columns and labels:
Assay type in all cases: biochemical
Fgr tyrosine kinase = Fgr tyrosine kinase (Homo sapiens (Human), UniProt P09769); assay: in vitro Fgr tyrosine kinase inhibition; conditions: 1 uM compound; read-out: % inhibition against Fgr
DDR1 tyrosine kinase = DDR1 tyrosine kinase (Homo sapiens (Human), UniProt Q08345); assay: in vitro DDR1 tyrosine kinase inhibition (GST-fused kinase domain); conditions: 1 uM compound; read-out: % inhibition against DDR1
Lyn tyrosine kinase = Lyn tyrosine kinase (Homo sapiens (Human), UniProt P07948); assay: in vitro Lyn tyrosine kinase inhibition; conditions: 1 uM compound; read-out: % inhibition against Lyn
Hck tyrosine kinase = Hck tyrosine kinase (Homo sapiens (Human), UniProt P08631); assay: in vitro Hck tyrosine kinase inhibition; conditions: 1 uM compound; read-out: % inhibition against Hck
c-Src tyrosine kinase = c-Src tyrosine kinase (Homo sapiens (Human), UniProt P12931); assay: in vitro c-Src tyrosine kinase inhibition (32P-ATP, poly(D4Y)n substrate); conditions: 1 uM compound; read-out: % inhibition against c-Src
DDR2 tyrosine kinase = DDR2 tyrosine kinase (Homo sapiens (Human), UniProt Q16832); assay: in vitro DDR2 tyrosine kinase inhibition (GST-fused kinase domain); conditions: 1 uM compound; read-out: % inhibition against DDR2
Chain of DDR2 tyrosine kinase (Q16832 563-849): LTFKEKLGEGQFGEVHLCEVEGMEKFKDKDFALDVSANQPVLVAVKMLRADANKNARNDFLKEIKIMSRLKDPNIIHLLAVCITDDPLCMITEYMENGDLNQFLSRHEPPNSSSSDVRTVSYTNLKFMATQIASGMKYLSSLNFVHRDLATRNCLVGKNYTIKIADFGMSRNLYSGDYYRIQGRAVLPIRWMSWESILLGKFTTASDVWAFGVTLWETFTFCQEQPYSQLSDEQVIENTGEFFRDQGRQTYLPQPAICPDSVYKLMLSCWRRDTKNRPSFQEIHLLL

Chain of Hck tyrosine kinase (P08631 whole entry): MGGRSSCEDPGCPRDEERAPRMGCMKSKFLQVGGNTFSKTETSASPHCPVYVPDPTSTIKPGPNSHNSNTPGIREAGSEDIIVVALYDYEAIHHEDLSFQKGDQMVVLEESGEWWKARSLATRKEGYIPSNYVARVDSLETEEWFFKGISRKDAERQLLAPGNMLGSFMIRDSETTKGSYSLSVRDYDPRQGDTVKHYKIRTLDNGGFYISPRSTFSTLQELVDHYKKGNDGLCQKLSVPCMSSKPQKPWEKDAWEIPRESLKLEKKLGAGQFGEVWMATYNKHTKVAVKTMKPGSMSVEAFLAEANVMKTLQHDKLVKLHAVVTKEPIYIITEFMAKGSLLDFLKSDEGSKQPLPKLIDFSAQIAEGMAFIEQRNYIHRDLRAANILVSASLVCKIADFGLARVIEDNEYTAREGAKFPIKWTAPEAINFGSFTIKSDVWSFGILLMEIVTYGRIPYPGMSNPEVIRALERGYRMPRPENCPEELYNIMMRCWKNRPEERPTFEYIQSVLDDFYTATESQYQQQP
Chain of Lyn tyrosine kinase (P07948 whole entry): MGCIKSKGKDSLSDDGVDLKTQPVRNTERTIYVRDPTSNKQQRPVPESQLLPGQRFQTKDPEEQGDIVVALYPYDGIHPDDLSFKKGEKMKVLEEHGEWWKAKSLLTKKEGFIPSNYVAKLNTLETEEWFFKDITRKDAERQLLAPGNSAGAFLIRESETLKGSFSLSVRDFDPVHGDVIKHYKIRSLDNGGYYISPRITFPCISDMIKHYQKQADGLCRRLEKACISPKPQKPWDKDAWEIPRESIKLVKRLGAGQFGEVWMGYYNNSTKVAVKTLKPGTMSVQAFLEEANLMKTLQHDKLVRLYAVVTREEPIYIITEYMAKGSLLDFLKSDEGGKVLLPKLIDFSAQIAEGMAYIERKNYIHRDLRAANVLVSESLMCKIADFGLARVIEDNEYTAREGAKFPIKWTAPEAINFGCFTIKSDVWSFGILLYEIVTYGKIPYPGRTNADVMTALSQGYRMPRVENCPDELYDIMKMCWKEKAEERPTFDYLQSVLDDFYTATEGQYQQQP
Chain of DDR1 tyrosine kinase (Q08345 610-905): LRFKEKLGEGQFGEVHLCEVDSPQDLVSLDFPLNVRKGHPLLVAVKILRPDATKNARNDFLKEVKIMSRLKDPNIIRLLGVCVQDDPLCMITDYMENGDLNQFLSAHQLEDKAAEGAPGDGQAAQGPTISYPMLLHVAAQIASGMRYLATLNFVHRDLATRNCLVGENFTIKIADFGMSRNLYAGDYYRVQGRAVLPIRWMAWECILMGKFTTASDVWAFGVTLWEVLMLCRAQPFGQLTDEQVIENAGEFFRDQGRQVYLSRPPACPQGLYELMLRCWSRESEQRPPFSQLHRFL
Chain of c-Src tyrosine kinase (P12931 whole entry, looked up, the tested form may be a part): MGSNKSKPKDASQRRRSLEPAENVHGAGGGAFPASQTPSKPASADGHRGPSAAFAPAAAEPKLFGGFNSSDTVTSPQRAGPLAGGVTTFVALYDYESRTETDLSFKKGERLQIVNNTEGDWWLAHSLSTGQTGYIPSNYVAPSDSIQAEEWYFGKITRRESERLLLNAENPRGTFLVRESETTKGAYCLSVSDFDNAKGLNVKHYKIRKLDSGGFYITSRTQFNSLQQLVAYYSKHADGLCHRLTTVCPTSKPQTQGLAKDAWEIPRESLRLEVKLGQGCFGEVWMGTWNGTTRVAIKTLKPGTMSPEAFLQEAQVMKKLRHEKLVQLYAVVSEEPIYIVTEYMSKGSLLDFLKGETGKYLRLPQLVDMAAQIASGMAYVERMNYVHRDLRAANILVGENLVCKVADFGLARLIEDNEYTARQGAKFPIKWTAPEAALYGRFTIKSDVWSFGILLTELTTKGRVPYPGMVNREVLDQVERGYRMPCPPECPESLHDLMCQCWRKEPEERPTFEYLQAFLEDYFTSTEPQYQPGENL
Chain of Fgr tyrosine kinase (P09769 whole entry, the tested form may be a part): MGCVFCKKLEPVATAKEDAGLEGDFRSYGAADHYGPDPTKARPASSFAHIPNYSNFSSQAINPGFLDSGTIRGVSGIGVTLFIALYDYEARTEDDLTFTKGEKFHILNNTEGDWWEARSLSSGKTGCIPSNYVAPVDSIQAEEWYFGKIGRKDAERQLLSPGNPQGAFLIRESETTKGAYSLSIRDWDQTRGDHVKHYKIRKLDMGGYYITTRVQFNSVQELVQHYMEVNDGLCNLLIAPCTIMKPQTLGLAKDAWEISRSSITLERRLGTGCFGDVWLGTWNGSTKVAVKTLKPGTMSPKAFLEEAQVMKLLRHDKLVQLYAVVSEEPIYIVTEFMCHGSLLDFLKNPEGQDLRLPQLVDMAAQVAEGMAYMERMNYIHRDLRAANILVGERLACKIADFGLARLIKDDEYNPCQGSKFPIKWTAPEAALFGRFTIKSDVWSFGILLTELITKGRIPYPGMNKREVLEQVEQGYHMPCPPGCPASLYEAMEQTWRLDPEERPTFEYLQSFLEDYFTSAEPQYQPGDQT

| SMILES | inhibition at 1 µM (Fgr tyrosine kinase) [%] | inhibition at 1 µM (DDR1 tyrosine kinase) [%] | inhibition at 1 µM (Lyn tyrosine kinase) [%] | inhibition at 1 µM (Hck tyrosine kinase) [%] | inhibition at 1 µM (c-Src tyrosine kinase) [%] | inhibition at 1 µM (DDR2 tyrosine kinase) [%] |
| --- | --- | --- | --- | --- | --- | --- |
| N#Cc1ccc(-c2cc3ncnc(Nc4cccc(O)c4)c3s2)cc1 [LCB 03-0013, 4-(4-(3-hydroxyphenylamino)thieno[3,2-d]pyrimidin-6-yl)benzonitrile] | > 60 | > 60 | > 70 | > 70 | > 70 | > 60 |
| COc1cccc(Nc2ncnc3cc(-c4ccc(O)cc4)sc23)c1 [LCB 03-0016, 4-(4-(3-methoxyphenylamino)thieno[3,2-d]pyrimidin-6-yl)phenol] | > 70 | > 20 | > 70 | > 70 | > 70 | > 20 |
| Oc1cccc(Nc2ncnc3cc(-c4ccc(Cl)cc4)sc23)c1 [LCB 03-0019, 3-(6-(4-chlorophenyl)thieno[3,2-d]pyrimidin-4-ylamino)phenol] | > 60 | > 70 | > 60 | > 60 | > 60 | > 70 |
| Oc1cccc(Nc2ncnc3cc(-c4ccc(OCCN5CCOCC5)cc4)sc23)c1 [LCB 03-0020, 3-(6-(4-(2-morpholinoethoxy)phenyl)thieno[3,2-d]pyrimidin-4-ylamino)phenol] | > 70 | > 60 | > 70 | > 70 | > 70 | > 60 |
| COc1cccc(Nc2ncnc3cc(-c4ccc(OCCc5ccccc5)cc4)sc23)c1 [LCB 03-0021, N-(3-methoxyphenyl)-6-(4-phenethoxyphenyl)thieno[3,2-d]pyrimidin-4-amine] | > 60 | > 30 | > 60 | > 60 | > 50 | > 30 |
| COc1cccc(Nc2ncnc3cc(-c4ccc(OCCc5ccccn5)cc4)sc23)c1 [LCB 03-0022, N-(3-methoxyphenyl)-6-(4-(2-(pyridin-2-yl)ethoxy)phenyl)thieno[3,2-d]pyrimidin-4-amine] | > 60 | > 10 | > 60 | > 60 | > 60 | > 10 |
| COc1cccc(Nc2ncnc3cc(-c4ccco4)sc23)c1 [LCB 03-0023, (6-Furan-2-yl-thieno[3,2-d]pyrimidin-4-yl)-(3-methoxyphenyl)-amine] | > 40 | > 60 | > 40 | > 40 | > 40 | > 60 |
| COc1cccc(Nc2ncnc3cc(-c4ccoc4)sc23)c1 [LCB 03-0024, (6-Furan-3-yl-thieno[3,2-d]pyrimidin-4-yl)-(3-methoxyphenyl)-amine] | > 30 | > 70 | > 30 | > 30 | > 30 | > 70 |
| COc1cccc(Nc2ncnc3cc(-c4ccc(OCCN5CCCC5)cc4)sc23)c1 [LCB 03-0026, N-(3-methoxyphenyl)-6-(4-(2-(pyrrolidin-1-yl)ethoxy)phenyl)thieno[3,2-d]pyrimidin-4-amine] | > 60 | > 20 | > 40 | > 60 | > 60 | > 20 |
| COc1cccc(Nc2ncnc3cc(-c4cccs4)sc23)c1 [LCB 03-0027, N-(3-methoxyphenyl)-6-(thiophene-2-yl)thieno[3,2-d]pyrimidin-4-amine] | > 40 | > 70 | > 40 | > 40 | > 40 | > 70 |
| COc1cccc(Nc2ncnc3cc(-c4ccsc4)sc23)c1 [LCB 03-0028, (3-Methoxyphenyl)-(6-thiophene-3-yl-thieno[3,2-d]pyrimidin-4-yl)-amine] | > 30 | > 50 | > 30 | > 30 | > 30 | > 50 |
| COc1cccc(Nc2ncnc3cc(-c4ccc(OCCN5CCNCC5)cc4)sc23)c1 [LCB 03-0029, N-(3-methoxyphenyl)-6-(4-(2-(piperazin-1-yl)ethoxy)phenyl)thieno[3,2-d]pyrimidin-4-amine] | > 60 | > 20 | > 60 | > 60 | > 60 | > 20 |
| Oc1cccc(Nc2ncnc3cc(-c4ccsc4)sc23)c1 [LCB 03-0031, 3-(6-Thiophene-3-yl-thieno[3,2-d]pyrimidin-4-ylamino)-phenol] | > 40 | > 70 | > 30 | > 40 | > 40 | > 70 |
| Oc1cccc(Nc2ncnc3cc(-c4ccc(CCN5CCCCC5)cc4)sc23)c1 [LCB 03-0044] | > 30 | > 80 | > 30 | > 30 | > 30 | > 80 |
| CN1CCN(CCc2ccc(-c3cc4ncnc(Nc5cccc(O)c5)c4s3)cc2)CC1 [LCB 03-0045] | > 20 | > 80 | > 30 | > 20 | > 30 | > 80 |

Continued, values first:

| inhibition at 1 µM (Fgr tyrosine kinase) [%] | inhibition at 1 µM (DDR1 tyrosine kinase) [%] | inhibition at 1 µM (Lyn tyrosine kinase) [%] | inhibition at 1 µM (Hck tyrosine kinase) [%] | inhibition at 1 µM (c-Src tyrosine kinase) [%] | inhibition at 1 µM (DDR2 tyrosine kinase) [%] | SMILES |
| --- | --- | --- | --- | --- | --- | --- |
| > 30 | > 80 | > 30 | > 30 | > 30 | > 80 | Oc1cccc(Nc2ncnc3cc(-c4ccc(CCN5CCOCC5)cc4)sc23)c1 [LCB 03-0046, 3-(6-(4-(2-morpholinoethyl)phenyl)thieno[3,2-d]pyrimidin-4-ylamino)phenol] |
| > 40 | > 80 | > 40 | > 40 | > 40 | > 80 | CCN(CC)C(=O)Cc1ccc(-c2cc3ncnc(Nc4cccc(O)c4)c3s2)cc1 [LCB 03-0050, N,N-diethyl-2-(4-(4-(3-hydroxyphenylamino)thieno[3,2-d]pyrimidin-6-yl)phenyl)acetamide] |
|  | > 80 |  |  |  | > 80 | O=C(O)c1cccc(-c2cc3ncnc(Nc4cccc(O)c4)c3s2)c1 [LCB 03-0051, 3-(4-(3-hydroxyphenylamino)thieno[3,2-d]pyrimidin-6-yl)benzoic acid] |
| > 50 | > 80 | > 60 | > 60 | > 60 | > 80 | CN1CCN(C(=O)c2ccc(-c3cc4ncnc(Nc5cccc(O)c5)c4s3)cc2)CC1 [LCB 03-0052, (4-(4-(3-hydroxyphenylamino)thieno[3,2-d]pyrimidin-6-yl)phenyl)(4-methylpiperazin-1-yl)methanone] |
| > 50 | > 80 | > 50 | > 50 | > 50 | > 80 | CN1CCN(C(=O)c2cccc(-c3cc4ncnc(Nc5cccc(O)c5)c4s3)c2)CC1 [LCB 03-0055, (3-(4-(3-hydroxyphenylamino)thieno[3,2-d]pyrimidin-6-yl)phenyl)(4-methylpiperazin-1-yl)methanone] |
| > 50 | > 80 | > 50 | > 50 | > 50 | > 80 | COC(=O)C1CCCN1Cc1ccc(-c2cc3ncnc(Nc4cccc(O)c4)c3s2)cc1 (stereo not drawn) [LCB 03-0056, methyl 1-(4-(4-(3-hydroxyphenylamino)thieno[3,2-d]pyrimidin-6-yl)benzyl)pyrrolidine-2-carboxylate] |
|  | > 80 |  |  |  | > 80 | NC(=O)C1CCCN1Cc1ccc(-c2cc3ncnc(Nc4cccc(O)c4)c3s2)cc1 (stereo not drawn) [LCB 03-0068, 1-(4-(4-(3-hydroxyphenylamino)thieno[3,2-d]pyrimidin-6-yl)benzyl)pyrrolidine-2-carboxamide] |
|  | > 50 |  |  |  | > 50 | O=C(O)C1CCCN1Cc1ccc(-c2cc3ncnc(Nc4cccc(O)c4)c3s2)cc1 (stereo not drawn) [LCB 03-0069, 1-(4-(4-(3-hydroxyphenylamino)thieno[3,2-d]pyrimidin-6-yl)benzyl)pyrrolidine-2-carboxylic acid] |
| > 30 | > 80 | > 30 | > 30 | > 30 | > 80 | CC(CO)NC(=O)c1ccc(-c2cc3ncnc(Nc4cccc(O)c4)c3s2)cc1 (stereo not drawn) [LCB 03-0074, 4-(4-(3-hydroxyphenylamino)thieno[3,2-d]pyrimidin-6-yl)-N-(1-hydroxypropan-2-yl)benzamide] |
| > 30 | > 80 | > 30 | > 30 | > 30 | > 80 | CC(NC(=O)c1ccc(-c2cc3ncnc(Nc4cccc(O)c4)c3s2)cc1)C(=O)O (stereo not drawn) [LCB 03-0075, 2-(4-(4-(3-hydroxyphenylamino)thieno[3,2-d]pyrimidin-6-yl)benzamido)propanoic acid] |
| > 30 | > 70 | > 30 | > 30 | > 30 | > 70 | CN1CCN(c2nc3ncnc(Nc4cccc(O)c4)c3s2)CC1 [LCB 03-0100, 3-(2-(4-methylpiperazin-1-yl)thiazolo[4,5-d]pyrimidin-7-ylamino)phenol] |
